The values that follow come from patent US9018395B2, “Pyrazolopyridine and pyrazolopyrimidine derivatives as melanocortin-4 receptor modulators” (Université de Montréal, priority 2011, dated 2015).

Non-standard residues stand in square brackets, D forms with d. Nle = CCCC[C@H](N)C(=O)O A value given as a limit tells only on which side of the number the result lay.

A word on the IC50: it is the concentration that inhibits the measured activity by half.

The subject of one series is MC4R/MC5R.
Assay: not given
The following applies: cited from earlier work.
As for “Ac-Nle-Gly-Lys-D-Nal(2)-Arg-Trp-Gly-NH(2)”, the “selectivity for MC4R as compared to MC5R” value is recorded as 109 fold.
As for “Ac-Nle-Gly-Lys-D-Phe-Arg-Trp-Gly-NH(2) (Ac-[Nle]GK[dF]RWG-NH2; SMILES CCCC[C@H](NC(C)=O)C(=O)NCC(=O)N[C@@H](CCCCN)C(=O)N[C@H](Cc1ccccc1)C(=O)N[C@@H](CCCNC(=N)N)C(=O)N[C@@H](Cc1c[nH]c2ccccc12)C(=O)NCC(N)=O)”, the “selectivity for MC4R as compared to MC5R” value is on record as 110 fold.

The test system of a further series is MC4R.
Assay: not given
The settings on record: cited from earlier work.
For the compound “Ac-Nle-Gly-Lys-D-Nal(2)-Arg-Trp-Gly-NH(2)”, the activity in vivo entry is on record as “active in vivo”.
For “Ac-Nle-Gly-Lys-D-Phe-Arg-Trp-Gly-NH(2) (Ac-[Nle]GK[dF]RWG-NH2; SMILES CCCC[C@H](NC(C)=O)C(=O)NCC(=O)N[C@@H](CCCCN)C(=O)N[C@H](Cc1ccccc1)C(=O)N[C@@H](CCCNC(=N)N)C(=O)N[C@@H](Cc1c[nH]c2ccccc12)C(=O)NCC(N)=O)”, the activity in vivo result was “active in vivo”.

Test system in the next series: not given
Assay: not given
The following applies: in vivo; cited from earlier work.
For “Ac-Nle-Gly-Lys-D-Nal(2)-Arg-Trp-Gly-NH(2)”, the blood-brain barrier crossing entry was “crossed the blood-brain barrier”.
As for “Ac-Nle-Gly-Lys-D-Phe-Arg-Trp-Gly-NH(2) (Ac-[Nle]GK[dF]RWG-NH2; SMILES CCCC[C@H](NC(C)=O)C(=O)NCC(=O)N[C@@H](CCCCN)C(=O)N[C@H](Cc1ccccc1)C(=O)N[C@@H](CCCNC(=N)N)C(=O)N[C@@H](Cc1c[nH]c2ccccc12)C(=O)NCC(N)=O)”, the blood-brain barrier crossing entry is listed as “crossed the blood-brain barrier”.

The subject of another series is MC4R/MC3R.
Assay: not given
The following applies: cited from earlier work.
Consider “Ac-Nle-Gly-Lys-D-Nal(2)-Arg-Trp-Gly-NH(2)”, for which the “selectivity for MC4R as compared to MC3R” value is recorded as 34 fold.
As for “Ac-Nle-Gly-Lys-D-Phe-Arg-Trp-Gly-NH(2) (Ac-[Nle]GK[dF]RWG-NH2; SMILES CCCC[C@H](NC(C)=O)C(=O)NCC(=O)N[C@@H](CCCCN)C(=O)N[C@H](Cc1ccccc1)C(=O)N[C@@H](CCCNC(=N)N)C(=O)N[C@@H](Cc1c[nH]c2ccccc12)C(=O)NCC(N)=O)”, the “selectivity for MC4R as compared to MC3R” value was 90 fold.

For a further series, the target named is T1, wild-type human melanocortin 4 receptor (WT-hMC4R) (Homo sapiens, UniProt P32245).
T1 construct: expressed in transfected cells; cDNA from UMR cDNA resource center
T1 sequence (P32245 whole entry): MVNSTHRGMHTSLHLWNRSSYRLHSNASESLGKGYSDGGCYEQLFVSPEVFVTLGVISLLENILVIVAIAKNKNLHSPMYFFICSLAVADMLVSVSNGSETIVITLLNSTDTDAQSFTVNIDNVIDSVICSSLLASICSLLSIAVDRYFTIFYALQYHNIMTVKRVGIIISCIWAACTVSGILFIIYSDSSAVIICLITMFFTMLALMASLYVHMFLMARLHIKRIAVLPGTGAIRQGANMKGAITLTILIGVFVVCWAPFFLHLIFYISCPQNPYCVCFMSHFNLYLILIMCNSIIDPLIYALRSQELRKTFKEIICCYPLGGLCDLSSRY
Description: Cyclic AMP assay (HTRF), antagonist competition against NDP-α-MSH. It is filed as cell-based. The following applies: HEK293T cells expressing double-tagged WT-hMC4R; cAMP accumulation; 1 hour compound then 4 nM NDP-α-MSH 30 min. The gist of the method: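 HEK293T cells stably expressing N-terminal 3xHA, C-terminal venus-YFP tagged WT-hMC4R, in D-PBS with 0.75 mM IBMX; compound (0.01 nM-10 μM) 1 h at 37° C, then 4 nM NDP-α-MSH 30 min. cAMP by HTRF competitive immunoassay; IC50 from sigmoidal variable-slope fit.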
(TR-FRET usually uses a lanthanide donor and a delayed reading to cut background.)
Regarding `CCCCCN(CCCCC)C(=O)c1ccn2nc(-c3ccc(F)cc3)c(CCCN3CCCCC3)c2c1` [Example 50], the IC50 lay within 1 to 5 µM.
The compound `COc1cc(OC)cc(-c2nn3ccc(C(=O)N(CCC(C)C)CCC(C)C)cc3c2/C=C/CN2CCCCC2)c1` [Example 84] yielded an IC50 below 0.5 µM.
`CCCCN(CCCC)C(=O)c1ccn2nc(-c3ccc(C(C)(C)C)cc3)c(/C=C/CN3CCCCC3)c2c1` [Example 7] showed an IC50 of 5 to 15 µM.
With `CC(C)CCN(CCC(C)C)C(=O)c1ccn2nc(-c3ccc(C(=O)O)cc3)c(/C=C/CN3CCCCC3)c2c1` [Example 24], the IC50 was in the range of 1 to 5 µM.
Still for that read-out and setting: for `COc1ccc(-c2nn3ccc(C(=O)N(CCC(C)C)CCC(C)C)cc3c2CCCN2CCCOCC2)cc1` [Example 162] the value was 0.5 to 1 µM; for `CCOC(=O)c1ccc(NC(=O)c2nn3ccc(C(=O)N(CCC(C)C)CCC(C)C)cc3c2/C=C/CN2CCCCC2)cc1` [Example 122], 1 to 5 µM.
As for `CCCCN(CCCC)C(=O)c1ccn2nc(-c3cc(OC)c(OC)c(OC)c3)c(CCCN3CCCCC3)c2c1` [Example 66], the concentration for half-maximal inhibition (IC50) lay within 0.5 to 1 µM.
For `CCOc1ccc(-c2nn3ccc(C(=O)N(CCC(C)C)CCC(C)C)cc3c2/C=C/CN2CCOCC2)cc1` [Example 147], the IC50 fell in the range of 5 to 15 µM.
Same read-out and setting: to `CC(=O)c1ccc(-c2nn3ccc(C(=O)N(CCC(C)C)CCC(C)C)cc3c2/C=C/CN2CCCCC2)cc1` [Example 42, (E)-2-(4-Acetylphenyl)-N,N-diisopentyl-3-(3-(piperidin-1-yl)prop-1-en-1-yl)pyrazolo[1,5-a]pyridine-5-carboxamide] belongs 0.5 to 1 µM; to `CC(C)CCN(CCC(C)C)C(=O)c1ccn2nc(-c3ccc(C(C)(C)C)cc3)c(/C=C/CN3CCCCC3)c2c1` [Example 5], 1 to 5 µM; to `CCN(CC)C/C=C/c1c(-c2ccc(OC)cc2)nn2ccc(C(=O)N(CCC(C)C)CCC(C)C)nc12` [Example 100], 5 to 15 µM.
Still for that read-out and setting: to `COc1ccc(-c2nn3ccc(C(=O)N(CCC(C)C)CCC(C)C)cc3c2CCCN)cc1` [Example 154] belongs 5 to 15 µM; to `CC(C)CCN(CCC(C)C)C(=O)c1ccn2nc(-c3cccc(C#N)c3)c(CCCN3CCCCC3)c2c1` [Example 92], below 0.5 µM; to `CC(C)CCN(CCC(C)C)C(=O)c1ccn2nc(-c3ccccc3)c(CCCN3CCCCC3)c2c1` [Example 55], 1 to 5 µM.
On the same count and under the same terms, for `CC(=O)O/N=C(\N)c1ccc(-c2nn3ccc(C(=O)N(CCC(C)C)CCC(C)C)cc3c2CCCN2CCCCC2)cc1` [Example 107] the value was below 0.5 µM; for `CCCN(CC1CC1)C(=O)c1ccn2nc(-c3ccc(OC)cc3)c(CCCN3CCCCC3)c2c1` [Example 27], 5 to 15 µM; for `CC(C)CCN(CCC(C)C)C(=O)c1ccn2nc(-c3cccc(C(C)O)c3)c(CCCN3CCCCC3)c2c1` (centres unmarked) [Example 32], 0.5 to 1 µM.
`COc1cc(-c2nn3ccc(C(=O)N(CCC(C)C)CCC(C)C)cc3c2/C=C/CN2CCCCC2)cc(OC)c1OC` [Example 70] returned an IC50 below 0.5 µM.
The compound `CC(C)CCN(CCC(C)C)C(=O)c1ccn2nc(-c3ccccc3)c(/C=C/CN3CCCCC3)c2c1` [Example 58] showed a 50% inhibitory concentration (IC50) of 0.5 to 1 µM.
With `COc1ccc(-c2nn3ccc(C(=O)N(CCC(C)C)CCC(C)C)cc3c2/C=C/CN(C)C)cc1` [Example 17], the IC50 lay in the range of 5 to 15 µM.
As for `CNC/C=C/c1c(-c2ccc(OC)cc2)nn2ccc(C(=O)N(CCC(C)C)CCC(C)C)cc12` [Example 153], the IC50 fell in the range of 5 to 15 µM.
`COc1ccc(-c2nn3ccc(C(=O)N(CCC(C)C)CCC(C)C)cc3c2CCCN2CCOCC2)cc1` [Example 124]: the IC50 was below 0.5 µM.
On the same count and under the same terms, for `CC(=O)c1ccccc1-c1nn2ccc(C(=O)N(CCC(C)C)CCC(C)C)cc2c1/C=C/CN1CCCCC1` [Example 35] the value was 1 to 5 µM; for `CC(C)CCN(CCC(C)C)C(=O)c1ccn2nc(-c3ccc(C(=O)O)cc3)c(CCCN3CCCCC3)c2c1` [Example 75], 1 to 5 µM; for `CC(C)CCN(CCC(C)C)C(=O)c1ccn2nc(-c3cccc(Br)c3)c(CCCN3CCCCC3)c2c1` [Example 37], below 0.5 µM.
Same read-out and setting: for `CC(C)CCN(CCC(C)C)C(=O)c1ccn2nc(-c3ccc(O)cc3)c(CCCN3CCCCC3)c2c1` [Example 78] the value was below 0.5 µM; for `CCCCN(CCCC)C(=O)c1ccn2nc(-c3ccccc3)c(/C=C/CN3CCCCC3)c2c1` [Example 57], 1 to 5 µM.
In the case of `CC(C)CCN(CCC(C)C)C(=O)c1ccn2nc(-c3ccc(OCc4ccccc4)cc3)c(/C=C/CN3CCCCC3)c2c1` [Example 76], the 50% inhibitory concentration (IC50) fell in the range of 1 to 5 µM.
`CC(C)CCN(CCC(C)C)C(=O)c1ccn2nc(-c3ccc(C(C)(C)C)cc3)c(CCCN3CCCCC3)c2c1` [Example 4] came in with an IC50 of 1 to 5 µM.
On the same count and under the same terms, for `COc1ccc(-c2nn3ccc(C(=O)N(CCC(C)C)CCC(C)C)cc3c2CCCN2CCCC(F)C2)cc1` (centres unmarked) [Example 161] the value was 1 to 5 µM; for `CC(C)CCN(CCC(C)C)C(=O)c1ccn2nc(-c3cccc(C(=O)O)c3)c(CCCN3CCCCC3)c2c1` [Example 74], 1 to 5 µM; for `COc1cc(-c2nn3ccc(C(=O)N(CCC(C)C)CCC(C)C)cc3c2CCCN2CCCCC2)cc(OC)c1OC` [Example 67], below 0.5 µM.
`COc1ccc(NC(=O)c2nn3ccc(C(=O)N(CCC(C)C)CCC(C)C)cc3c2/C=C/CN2CCCCC2)cc1` [Example 117] returned a half-maximal inhibitory concentration (IC50) of 1 to 5 µM.
In turn, `CC(C)CCN(CCC(C)C)C(=O)c1ccn2nc(-c3ccc(Cl)cc3)c(/C=C/CN3CCCCC3)c2c1` [Example 10, (E)-2-(4-chlorophenyl)-N,N-diisopentyl-3-(3-(piperidin-1-yl)prop-1-en-1-yl)pyrazolo[1,5-a]pyridine-5-carboxamide] showed an IC50 of 0.5 to 1 µM.
`CC(=O)c1ccccc1-c1nn2ccc(C(=O)N(CCC(C)C)CCC(C)C)cc2c1CCCN1CCCCC1` [Example 40] came in with a 50% inhibitory concentration (IC50) of 1 to 5 µM.
Same read-out and setting: for `COc1ccc(Nc2nn3ccc(C(=O)N(CCC(C)C)CCC(C)C)cc3c2CCCN2CCCCC2)cc1` [Example 142, N,N-diisopentyl-2-((4-methoxyphenyl)amino)-3-(3-(piperidin-1-yl)propyl)pyrazolo[1,5-a]pyridine-5-carboxamide] the value was below 0.5 µM; for `CCCCN(CCCC)C(=O)c1ccn2nc(-c3ccccc3)c(CCCN3CCCCC3)c2c1` [Example 54], 0.5 to 1 µM; for `COc1ccc(-c2nn3ccc(C(=O)N(CCC(C)C)CCC(C)C)cc3c2/C=C/CN2CCC(C)CC2)cc1` [Example 145], below 0.5 µM.
With `Cc1ccc(-c2nn3ccc(C(=O)N(CCC(C)C)CCC(C)C)cc3c2/C=C/CN2CCCCC2)cc1` [Example 64], the half-maximal inhibitory concentration (IC50) was below 0.5 µM.
On the same count and under the same terms, to `CCCCN(CCCC)C(=O)c1ccn2nc(-c3cc(OC)cc(OC)c3)c(/C=C/CN3CCCCC3)c2c1` [Example 85] belongs 0.5 to 1 µM; to `COc1ccc(-c2nn3ccc(C(=O)N(CCC(C)C)CCC(C)C)cc3c2/C=C/CN2CCCCC2C)cc1` (centres unmarked) [Example 169], 0.5 to 1 µM; to `CC(C)CCN(CCC(C)C)Cc1ccn2nc(-c3ccccc3)c(CCCN3CCCCC3)c2c1` [Example 144], 5 to 15 µM.
With `CC(C)CCN(CCC(C)C)C(=O)c1ccn2nc(-c3ccc(C#N)cc3)c(CCCN3CCCCC3)c2c1` [Example 96], the IC50 was below 0.5 µM.
For the compound `CCOc1ccc(-c2nn3ccc(C(=O)N(CCC(C)C)CCC(C)C)cc3c2CCCN2CCOCC2)cc1` [Example 166], the IC50 lay within 1 to 5 µM.
The compound `CCCN(CC1CC1)C(=O)c1ccn2nc(-c3ccc(OC)cc3)c(/C=C/CN3CCCCC3)c2c1` [Example 26] displayed a concentration for half-maximal inhibition (IC50) of 5 to 15 µM.
As to `CCOc1ccc(-c2nn3ccc(C(=O)N(CCC(C)C)CCC(C)C)cc3c2CCCN2CCC(C(F)(F)F)CC2)cc1` [Example 82], the half-inhibitory concentration (IC50) is 5 to 15 µM.
Consider `CCOC(=O)c1ccc(NC(=O)c2nn3ccc(C(=O)N(CCC(C)C)CCC(C)C)cc3c2CCCN2CCCCC2)cc1` [Example 125], for which the IC50 fell in the range of 1 to 5 µM.
On the same count and under the same terms, for `CN=C(c1ccn2nc(-c3ccccc3)c(CCCN3CCCCC3)c2c1)N(CCC(C)C)CCC(C)C` [Example 165, N,N-diisopentyl-N′-methyl-2-phenyl-3-(3-(piperidin-1-yl)propyl)pyrazolo[1,5-a]pyridine-5-carboximidamide] the value was below 0.5 µM.
